Columns and labels:
Format in all cases: biochemical
Pim-1 = target: T1, Pim-1 (Homo sapiens, UniProt P11309); assay: Pim-1 kinase assay (Pim enzyme assays, Example A); details: 1 mM ATP; read-out: Pim1 IC50
T1 construct: purchased Invitrogen PV3503
Experimental: (§1) Pim-1 and Pim-3 kinase assays-20 μL reactions were run in white 384 well polystyrene plates dotted with 0.8 μL compound/DMSO in the assay buffer (50 mM Tris, pH 7.5, 0.01% Tween-20, 5 mM mgCl2, 0.01% BSA, 5 mM DTT), containing 0.05 μM Biotin-labeled BAD peptide substrate (AnaSpec 62269), 1 mM ATP, and […] (Pim-1, Invitrogen PV3503) or […] (Pim-3, Millipore 14-738) enzyme for 1 h at 25° C. Reactions were stopped by addition of 10 μL STOP Buffer (150 mM Tris, pH=7.5, 150 mM NaCl, 75 mM EDTA, 0.01% Tween-20, 0.3% BSA,) supplemented with Phospho-Bad (Ser 12) Antibody (Cell Signaling 9291) diluted 666-fold, and Streptavidin donor beads (PerkinElmer 6760002) along with Protein-A acceptor beads (PerkinElmer 6760137) at 15 μg/mL each. Supplementation of the STOP buffer with beads and stopping the reactions were done under reduced light. Prior to the stopping reactions STOP buffer with beads was preincubated for 1 h in the dark at room temperature. After stopping the reactions, plates were incubated for 1 h in the dark at room temperature before reading on a PHERAstar FS plate reader (BMG Labtech) under reduced light.

Pim2 = target: T2, Pim2 (Homo sapiens, UniProt Q9P1W9); assay: Pim-2 kinase assay (Pim enzyme assays, Example A); details: 1 mM ATP; read-out: Pim2 IC50
T2 construct: purchased Invitrogen PV3649
Experimental: Pim-2 kinase assay—20 μL reactions were run in white 384 well polystyrene plates dotted with 0.8 μL compound/DMSO in the assay buffer (50 mM Tris, pH 7.5, 0.01% Tween-20, 5 mM mgCl2, 0.01% BSA, 5 mM DTT), containing 0.05 μM Fluorescein-labeled CREBtide peptide substrate (Invitrogen PV3508), 1 mM ATP, and 1 nM enzyme (Invitrogen PV3649) for 2 h at 25° C. Reactions were stopped by addition of 10 μL TR-FRET Dilution Buffer (Invitrogen PV3574) with 30 mM EDTA and 1.5 nM LanthaScreen Tb-CREB pSer133 antibody (Invitrogen PV3566). After 30 min. incubation at room temperature, plates were read on a PHERAstar FS plate reader (BMG Labtech).

Pim-3 = target: T3, Pim-3 (Homo sapiens, UniProt Q86V86); assay: Pim-3 kinase assay (Pim enzyme assays, Example A); details: 1 mM ATP; read-out: Pim3 IC50
T3 construct: purchased Millipore 14-738
Experimental: as §1

T2 sequence (Q9P1W9 whole entry): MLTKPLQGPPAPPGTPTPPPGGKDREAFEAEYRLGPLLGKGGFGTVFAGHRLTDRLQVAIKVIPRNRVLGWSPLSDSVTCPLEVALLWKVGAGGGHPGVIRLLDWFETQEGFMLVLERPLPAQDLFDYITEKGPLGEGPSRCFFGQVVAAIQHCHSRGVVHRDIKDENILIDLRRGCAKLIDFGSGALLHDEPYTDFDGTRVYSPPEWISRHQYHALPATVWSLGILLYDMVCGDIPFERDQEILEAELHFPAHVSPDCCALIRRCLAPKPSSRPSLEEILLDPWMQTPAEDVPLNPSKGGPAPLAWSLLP
T1 sequence (P11309 whole entry): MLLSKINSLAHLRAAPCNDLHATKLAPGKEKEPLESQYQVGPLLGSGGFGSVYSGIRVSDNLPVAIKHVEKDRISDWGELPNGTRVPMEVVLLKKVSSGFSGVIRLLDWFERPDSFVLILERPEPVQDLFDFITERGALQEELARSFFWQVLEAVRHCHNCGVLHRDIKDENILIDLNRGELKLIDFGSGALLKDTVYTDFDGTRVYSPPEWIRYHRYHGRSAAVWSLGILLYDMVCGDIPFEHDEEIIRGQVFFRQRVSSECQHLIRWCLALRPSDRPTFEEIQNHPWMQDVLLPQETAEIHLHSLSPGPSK

IC50 (Pim-1) [nM] | IC50 (Pim2) [nM] | IC50 (Pim-3) [nM] | Compound
≤ 100 | > 2000 | ≤ 100 | CCc1ccc2cc(N)c(C(=O)Nc3cnc4c(c3N3CCC[C@H](N)C3)CCC4O)nc2c1 (single isomer, unassigned) [22 isomer 2]
≤ 100 | 100 to 1000 | ≤ 100 | Nc1cc2ccc(C3CCNCC3)cc2nc1C(=O)Nc1cnccc1N1CCC[C@H](N)C1 [Example 1, 3-Amino-N-{4-[(3S)-3-aminopiperidin-1-yl]pyridin-3-yl}-7-piperidin-4-ylquinoline-2-carboxamide]
≤ 100 | 100 to 1000 | ≤ 100 | Nc1cc2ccc(C3CCOCC3)cc2nc1C(=O)Nc1cnccc1N1CCC[C@H](N)C1 [Example 2, 3-Amino-N-{4-[(3S)-3-aminopiperidin-1-yl]pyridin-3-yl}-7-(tetrahydro-2H-pyran-4-yl)quinoline-2-carboxamide]
≤ 100 | 100 to 1000 | ≤ 100 | Nc1cc2ccc(-c3c(F)cccc3F)cc2nc1C(=O)Nc1cnccc1N1CCC[C@H](N)C1 [Example 3, 3-Amino-N-{4-[(3S)-3-aminopiperidin-1-yl]pyridin-3-yl}-7-(2,6-difluorophenyl)quinoline-2-carboxamide]
≤ 100 | 1000 to 10000 | ≤ 100 | Cn1nccc1-c1ccc2cc(N)c(C(=O)Nc3cnccc3N3CCC[C@H](N)C3)nc2c1 [Example 4, 3-Amino-N-{4-[(3S)-3-aminopiperidin-1-yl]pyridin-3-yl}-7-(1-methyl-1H-pyrazol-5-yl)quinoline-2-carboxamide]
≤ 100 | ≤ 100 | ≤ 100 | N#Cc1ccccc1-c1ccc2cc(N)c(C(=O)Nc3cnccc3N3CCC[C@H](N)C3)nc2c1 [Example 5, 3-Amino-N-{4-[(3S)-3-aminopiperidin-1-yl]pyridin-3-yl}-7-(2-cyanophenyl)quinoline-2-carboxamide]
≤ 100 | ≤ 100 | ≤ 100 | N#Cc1cccc(F)c1-c1ccc2cc(N)c(C(=O)Nc3cnccc3N3CCC[C@H](N)C3)nc2c1 [Example 7, 3-Amino-N-{4-[(3S)-3-aminopiperidin-1-yl]pyridin-3-yl}-7-(2-cyano-6-fluorophenyl)quinoline-2-carboxamide]
> 40 | > 2000 | ≤ 100 | NC(=O)c1cccc(F)c1-c1ccc2cc(N)c(C(=O)Nc3cnccc3N3CCC[C@H](N)C3)nc2c1 [Example 8, 3-Amino-7-[2-(aminocarbonyl)-6-fluorophenyl]-N-{4-[(3S)-3-aminopiperidin-1-yl]pyridin-3-yl}quinoline-2-carboxamide]
≤ 100 | ≤ 100 | ≤ 100 | CC(C)c1ccc2cc(N)c(C(=O)Nc3cnccc3N3CCC[C@H](N)C3)nc2c1 [Example 9, 3-Amino-N-{4-[(3S)-3-aminopiperidin-1-yl]pyridin-3-yl}-7-isopropylquinoline-2-carboxamide]
≤ 100 | ≤ 100 | ≤ 100 | CCc1ccc2cc(N)c(C(=O)Nc3cnccc3N3CCC[C@H](N)C3)nc2c1 [Example 10, 3-Amino-N-{4-[(3S)-3-aminopiperidin-1-yl]pyridin-3-yl}-7-ethylquinoline-2-carboxamide]
≤ 100 | 100 to 1000 | ≤ 100 | Nc1cc2ccccc2nc1C(=O)Nc1cnccc1N1CCC[C@H](N)C1 [Example 11, 3-Amino-N-{4-[(3S)-3-aminopiperidin-1-yl]pyridin-3-yl}quinoline-2-carboxamide]
≤ 100 | 100 to 1000 | ≤ 100 | Nc1cc2ccc(Br)cc2nc1C(=O)Nc1cnccc1N1CCC[C@H](N)C1 [Example 12, 3-Amino-N-{4-[(3S)-3-aminopiperidin-1-yl]pyridin-3-yl}-7-bromoquinoline-2-carboxamide]
≤ 100 | 100 to 1000 | ≤ 100 | N#CCc1ccc2cc(N)c(C(=O)Nc3cnccc3N3CCC[C@H](N)C3)nc2c1 [Example 13, 3-Amino-N-{4-[(3S)-3-aminopiperidin-1-yl]pyridin-3-yl}-7-(cyanomethyl)quinoline-2-carboxamide]
≤ 100 | 100 to 1000 | ≤ 100 | CCc1cc2nc(C(=O)Nc3cnccc3N3CCC[C@H](N)C3)c(N)cc2cc1F [Example 14, 3-Amino-N-{4-[(3S)-3-aminopiperidin-1-yl]pyridin-3-yl}-7-ethyl-6-fluoroquinoline-2-carboxamide]
≤ 100 | 100 to 1000 | ≤ 100 | CC(O)c1ccc2cc(N)c(C(=O)Nc3cnccc3N3CCC[C@H](N)C3)nc2c1 (stereo partly drawn) [Example 15, 3-Amino-N-{4-[(3S)-3-aminopiperidin-1-yl]pyridin-3-yl}-7-(1-hydroxyethyl)quinoline-2-carboxamide]
≤ 100 | 100 to 1000 | ≤ 100 | CC(C)(O)c1ccc2cc(N)c(C(=O)Nc3cnccc3N3CCC[C@H](N)C3)nc2c1 [Example 16, 3-Amino-N-{4-[(3S)-3-aminopiperidin-1-yl]pyridin-3-yl}-7-(1-hydroxy-1-methylethyl)quinoline-2-carboxamide]
≤ 100 | > 2000 | ≤ 100 | Nc1cc2ccc(C(O)c3ccccc3)cc2nc1C(=O)Nc1cnccc1N1CCC[C@H](N)C1 (stereo partly drawn) [Example 17, 3-Amino-N-{4-[(3S)-3-aminopiperidin-1-yl]pyridin-3-yl}-7-[hydroxy(phenyl)methyl]quinoline-2-carboxamide]
≤ 100 | 100 to 1000 | ≤ 100 | CC(F)c1ccc2cc(N)c(C(=O)Nc3cnccc3N3CCC[C@H](N)C3)nc2c1 (stereo partly drawn) [Example 18, 3-Amino-N-{4-[(3S)-3-aminopiperidin-1-yl]pyridin-3-yl}-7-(1-fluoroethyl)quinoline-2-carboxamide]
≤ 100 | > 2000 | ≤ 100 | Nc1cc2ccc(CN3CCCC3)cc2nc1C(=O)Nc1cnccc1N1CCC[C@H](N)C1 [Example 19, 3-Amino-N-{4-[(3S)-3-aminopiperidin-1-yl]pyridin-3-yl}-7-(pyrrolidin-1-ylmethyl)quinoline-2-carboxamide]
≤ 100 | > 2000 | ≤ 100 | CN(C)Cc1ccc2cc(N)c(C(=O)Nc3cnccc3N3CCC[C@H](N)C3)nc2c1 [Example 20, 3-Amino-N-{4-[(3S)-3-aminopiperidin-1-yl]pyridin-3-yl}-7-[(dimethylamino)methyl]quinoline-2-carboxamide]
≤ 100 | 100 to 1000 | ≤ 100 | Nc1cc2ccc(CN3CCOCC3)cc2nc1C(=O)Nc1cnccc1N1CCC[C@H](N)C1 [Example 21, 3-Amino-N-{4-[(3S)-3-aminopiperidin-1-yl]pyridin-3-yl}-7-(morpholin-4-ylmethyl)quinoline-2-carboxamide]
≤ 100 | 100 to 1000 | ≤ 100 | CCc1ccc2cc(N)c(C(=O)Nc3cnccc3C3CCCC(N)C3)nc2c1 (stereo not drawn) [Example 23, 3-Amino-N-[4-(3-aminocyclohexyl)pyridin-3-yl]-7-ethylquinoline-2-carboxamide]
≤ 100 | 100 to 1000 | ≤ 100 | CCc1ccc2cc(N)c(C(=O)Nc3cnc4c(c3N3CCC[C@H](N)C3)CCO4)nc2c1 [Example 24, (S)-3-Amino-N-(4-(3-aminopiperidin-1-yl)-2,3-dihydrofuro[2,3-b]pyridin-5-yl)-7-ethylquinoline-2-carboxamide]
≤ 100 |  | ≤ 100 | CCOc1ccc2cc(N)c(C(=O)Nc3cnccc3N3CCC[C@H](N)C3)nc2n1 [Example 25, 3-Amino-N-{4-[(3S)-3-aminopiperidin-1-yl]pyridin-3-yl}-7-ethoxy-1,8-naphthyridine-2-carboxamide]
≤ 100 |  | ≤ 100 | CCOc1ccc2cc(N)c(C(=O)Nc3cnccc3N3C[C@@H](N)[C@H](O)[C@@H](C)C3)nc2n1 [Example 26, 3-Amino-N-{4-[(3R,4R,5S)-3-amino-4-hydroxy-5-methylpiperidin-1-yl]pyridin-3-yl}-7-ethoxy-1,8-naphthyridine-2-carboxamide]
≤ 100 |  | ≤ 100 | CCc1cc2nc(C(=O)Nc3cnccc3N3CCC[C@H](N)C3)c(N)cc2cn1 [Example 27, 3-Amino-N-{4-[(3S)-3-aminopiperidin-1-yl]pyridin-3-yl}-7-ethyl-1,6-naphthyridine-2-carboxamide]

Reference: patent publication US9278950B2, “Bicyclic aromatic carboxamide compounds useful as Pim kinase inhibitors” (Incyte Corporation, priority 2013, dated 2016)
